How the values were obtained:
Assay in all cases: HPLC of anthocyanidin formed from product, crude E. coli extract
Format in all cases: biochemical
Settings in all cases: 0.8 mM substrate, 1.6 mM NADPH, 50 mM Tris-HCl pH 7.0, 30 °C, 30 min
DeDFR2 = molecular target: T1, DeDFR2 (Dryopteris erythrosora, UniProt A0A5P8I1W3)
T1 construct: gene DFR2
T1 sequence (A0A5P8I1W3 1-341): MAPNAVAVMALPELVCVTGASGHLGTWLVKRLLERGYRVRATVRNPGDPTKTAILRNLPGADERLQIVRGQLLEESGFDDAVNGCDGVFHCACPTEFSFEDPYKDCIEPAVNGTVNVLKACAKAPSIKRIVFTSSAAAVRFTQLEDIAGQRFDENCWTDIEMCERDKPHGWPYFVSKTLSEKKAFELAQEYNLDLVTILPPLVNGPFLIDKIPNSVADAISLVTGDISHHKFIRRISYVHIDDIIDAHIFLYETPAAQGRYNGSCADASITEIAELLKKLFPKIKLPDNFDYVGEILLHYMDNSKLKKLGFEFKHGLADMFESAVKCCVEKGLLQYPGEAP

DeDFR1 = molecular target: T2, DeDFR1 (Dryopteris erythrosora, UniProt A0A5P8I1X0)
T2 construct: gene DFR1
T2 sequence (A0A5P8I1X0 1-328): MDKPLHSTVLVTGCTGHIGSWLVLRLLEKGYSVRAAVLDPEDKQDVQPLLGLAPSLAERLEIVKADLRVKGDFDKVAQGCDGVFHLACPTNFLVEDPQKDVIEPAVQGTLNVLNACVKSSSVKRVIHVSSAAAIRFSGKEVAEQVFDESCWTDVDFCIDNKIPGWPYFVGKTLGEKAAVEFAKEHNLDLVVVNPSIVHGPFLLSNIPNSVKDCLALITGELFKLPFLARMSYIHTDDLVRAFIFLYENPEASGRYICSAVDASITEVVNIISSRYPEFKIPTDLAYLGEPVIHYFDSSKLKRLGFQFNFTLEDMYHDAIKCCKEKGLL

AtDFR = molecular target: T3, AtDFR (Arabidopsis thaliana, UniProt P51102)
T3 construct: gene DFRA; pET28a-AtDFR, E. coli BL21(DE3), crude soluble extract
T3 sequence (P51102 1-382): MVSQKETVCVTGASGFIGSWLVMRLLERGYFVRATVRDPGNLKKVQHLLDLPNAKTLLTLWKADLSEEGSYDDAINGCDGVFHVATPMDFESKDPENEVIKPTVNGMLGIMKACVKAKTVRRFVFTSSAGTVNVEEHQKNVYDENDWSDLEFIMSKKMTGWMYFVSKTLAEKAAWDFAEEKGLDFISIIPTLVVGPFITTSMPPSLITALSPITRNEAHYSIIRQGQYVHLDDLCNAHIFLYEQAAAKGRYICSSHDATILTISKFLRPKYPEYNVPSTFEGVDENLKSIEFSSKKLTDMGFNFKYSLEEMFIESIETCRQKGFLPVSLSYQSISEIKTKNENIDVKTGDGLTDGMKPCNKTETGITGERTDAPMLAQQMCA

| Structure (SMILES) | HPLC of anthocyanidin formed from product, crude E. coli extract (DeDFR2) | HPLC of anthocyanidin formed from product, crude E. coli extract (DeDFR1) | HPLC of anthocyanidin formed from product, crude E. coli extract (AtDFR) |
| --- | --- | --- | --- |
| O=C1c2c(O)cc(O)cc2O[C@H](c2ccc(O)cc2)[C@H]1O [DHK, dihydrokaempferol] | DeDFR1 and DeDFR2 had the ability to catalyze the DHK and DHQ reaction | DeDFR1 and DeDFR2 had the ability to catalyze the DHK and DHQ reaction | – |
| O=C1c2c(O)cc(O)cc2O[C@H](c2ccc(O)c(O)c2)[C@H]1O [DHQ, dihydroquercetin] | DeDFR1 and DeDFR2 had the ability to catalyze the DHK and DHQ reaction | DeDFR1 and DeDFR2 had the ability to catalyze the DHK and DHQ reaction | all three dihydroflavonols could be converted to pink anthocyanins |
| O=C1c2c(O)cc(O)cc2O[C@H](c2cc(O)c(O)c(O)c2)[C@H]1O [DHM, dihydromyricetin] | – | – | all three dihydroflavonols could be converted to pink anthocyanins |

Source: publication PMC7194404, “Arg-type dihydroflavonol 4-reductase genes from the fern Dryopteris erythrosora play important roles in the biosynthesis of anthocyanins” (PLoS ONE, 2020)
